Test results: article PMC3438169 (PLoS ONE, 2012)
*1 amine or outer side, *2 acyl side, *3 side chain or, on linkers, in order; H or OH if unused. Where a SMILES comes first, the peptide text is derived from it. [ ]: non-standard residue; d: D form. dAla(ψthiazole) = C[C@@H](N[*:1])c1nc(C(=O)[*:2])cs1; Trp(4-OMe) = COc1cccc2[nH]cc(C[C@H](N)C(=O)O)c12; dAbu = CC[C@@H](N)C(=O)O; Dha = C=C(N)C(=O)O; Sar = CNCC(=O)O

Assays:
EF-G1 S459F = molecular target: T1, EF-G1 S459F (Pseudomonas aeruginosa, UniProt Q9HWD2, S459F); test: Surface plasmon resonance (SPR), EF-G1 S459F; format: binding, P. aeruginosa; conditions: Biacore, data not shown
T1 construct: P. aeroginosa fusA1 encoding full-length EF-G was PCR amplified from pET28a-PaEFG-Nhis; made in house; host or cells: E. coli BL21 (DE3)
Description: For wild type P. aeruginosa EF-G1 expression, the fusA gene was amplified from genomic DNA of P. aeruginosa PAO1 K767 using the primer pair EFG-F/EFG-R: […]/[…]. The product was digested with NdeI and HindIII and ligated into similarly digested pET28a to generate pET28a-PaEFG-Nhis. This plasmid was then used for site directed mutagenesis to introduce the nucleotide change encoding EF-G1S459F (pET28a-PaEFGS459F-Nhis). The plasmids were then transformed into an E. coli strain BL21 (DE3) for expression. A single colony was used to inoculate 10 ml LB broth containing 50 µg/ml kanamycin which was incubated at 37°C overnight, with shaking at 250 rpm. The overnight culture was then diluted 100-fold into 1 liter fresh LB broth containing 50 µg/ml kanamycin. After growing at 37°C with vigorous shaking for about 2.5 hours, expression of P. aeruginosa EF-G1 or EF-G1S459F was then induced by adding 0.1 mM IPTG, with further culture incubation at 18°C for 24 hours. Cells were then pelleted by centrifugation at 5,000 rpm with Sorvall SLC-6000 rotor and stored at −20°C. Cell pellets were then resuspended in 20 ml of BugBuster solution (Novagen) and incubated at room temperature for 20 minutes. […] The protein in the fractions was monitored by UV absorbance at 280 nm. […] Protein concentration was determined by Nano-drop spectrophotometer. […]

[1] = test system: recombinant human mEF-G1 S452L; test: Biacore binding, human mEF-G1 S452L; conditions: 10, 20, 40 µM, HBS-P+ pH 7.4, 4% DMSO
Description: GFM1 encoding the active site of EF-G1 (residues 36–751) was PCR amplified from pDONR221 constructs using primers (GGGGACAAGTTTGTACAAAAAAGCAGGCTTAATGTCTTCATCAGGGGTGATT, GGGGACCACTTTGTACAAGAAAGCTGGGTATTAGTTCTTGGCTTTTCC). P. aeroginosa fusA1 encoding full-length EF-G was PCR amplified from pET28a-PaEFG-Nhis using primers (GGGGACCACTTTGTACAAGAAAGCTGGGTATTATCAACCTTGTTTTTT, GGGGACAAGTTTGTACAAAAAAGCAGGCTTAATGGCCCGTACTACACCC). Purified PCR products were cloned into the pDONR221 vector using Gateway cloning and BP Clonase II (Invitrogen), shuttled into an E.coli protein expression vector for N-terminal tagging (Avitag-His6 vector) using LR Clonase II (Invitrogen), and verified by sequencing. Avitag-His6-hEF-G1 and Avitag-His6-PaEF-G constructs were transformed into BL21-AI cells (Invitrogen) and isolated single colonies were used to inoculate 5 ml cultures which were grown overnight at 37°C with shaking. […]. Briefly, protein was captured on column using binding buffer (50 mM Tris; pH 7.5, 300 mM NaCl, 20 mM imidazole, 10% glycerol), washed extensively with washing buffer (50 mM Tris; pH 7.5, 500 mM NaCl, 30 mM imidazole, 10% glycerol), and then eluted with elution buffer (50 mM Tris; pH 7.5, 500 mM NaCl, 250 mM imidazole, 10% glycerol). […]

T1 sequence (Q9HWD2 whole entry S459F): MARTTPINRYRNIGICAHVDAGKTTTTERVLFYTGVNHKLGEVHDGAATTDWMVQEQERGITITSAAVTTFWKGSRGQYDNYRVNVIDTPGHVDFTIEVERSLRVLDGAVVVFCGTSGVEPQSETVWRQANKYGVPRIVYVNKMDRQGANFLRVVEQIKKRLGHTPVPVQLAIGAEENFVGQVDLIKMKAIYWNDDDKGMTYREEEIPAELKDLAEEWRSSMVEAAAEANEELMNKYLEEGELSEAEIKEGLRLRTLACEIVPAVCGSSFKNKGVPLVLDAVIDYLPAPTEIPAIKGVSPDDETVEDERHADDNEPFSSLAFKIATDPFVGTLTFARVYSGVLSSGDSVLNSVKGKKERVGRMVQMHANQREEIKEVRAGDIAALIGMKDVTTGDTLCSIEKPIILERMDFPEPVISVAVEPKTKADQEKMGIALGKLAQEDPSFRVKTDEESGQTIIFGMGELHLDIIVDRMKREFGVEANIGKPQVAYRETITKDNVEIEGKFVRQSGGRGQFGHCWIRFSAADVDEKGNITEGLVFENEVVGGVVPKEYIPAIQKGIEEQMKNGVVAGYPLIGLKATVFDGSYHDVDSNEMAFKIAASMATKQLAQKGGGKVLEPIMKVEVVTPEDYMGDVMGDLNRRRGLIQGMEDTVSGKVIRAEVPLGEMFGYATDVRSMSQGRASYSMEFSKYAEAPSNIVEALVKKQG

## C=C1NC(=O)CN(C)C(=O)CNC(=O)[C@H](Cc2c[nH]c3cccc(OC)c23)NC(=O)[C@H](Cc2c[nH]c3ccccc23)NC(=O)c2csc(n2)[C@@H](C)NC(=O)[C@@H](CC)NC1=O [argyrin B] (cyclo([dAbu][dAla(ψthiazole)]W[Trp(4-OMe)]G[Sar][Dha]))
EF-G1 S459F
  Binding by SPR (in words): failed to bind argyrin B sufficiently to generate a Kd value
[1]
  Binding to human mEF-G1 (in words): still bound
